Experiment [1] in a line: Counterscreen for IDE inhibitors: Luminescence-based cell-based high throughput dose response assay to identify compounds that are cytotoxic to HEK cells. [Related pubchem assays: 434962 (Primary screen (IDE inhibitors in singlicate)), 449730 (Counterscreen (Cytotoxicity in triplicate)), 435028 (Confirmation (IDE inhibitors in triplicate)) …. Particulars: HEK293. In kind it is functional. For orientation: Counterscreens check selectivity or assay interference.

The target in the next experiment is T1, Insulin-degrading enzyme (Homo sapiens, UniProt P14735).
T1 sequence (P14735 whole entry): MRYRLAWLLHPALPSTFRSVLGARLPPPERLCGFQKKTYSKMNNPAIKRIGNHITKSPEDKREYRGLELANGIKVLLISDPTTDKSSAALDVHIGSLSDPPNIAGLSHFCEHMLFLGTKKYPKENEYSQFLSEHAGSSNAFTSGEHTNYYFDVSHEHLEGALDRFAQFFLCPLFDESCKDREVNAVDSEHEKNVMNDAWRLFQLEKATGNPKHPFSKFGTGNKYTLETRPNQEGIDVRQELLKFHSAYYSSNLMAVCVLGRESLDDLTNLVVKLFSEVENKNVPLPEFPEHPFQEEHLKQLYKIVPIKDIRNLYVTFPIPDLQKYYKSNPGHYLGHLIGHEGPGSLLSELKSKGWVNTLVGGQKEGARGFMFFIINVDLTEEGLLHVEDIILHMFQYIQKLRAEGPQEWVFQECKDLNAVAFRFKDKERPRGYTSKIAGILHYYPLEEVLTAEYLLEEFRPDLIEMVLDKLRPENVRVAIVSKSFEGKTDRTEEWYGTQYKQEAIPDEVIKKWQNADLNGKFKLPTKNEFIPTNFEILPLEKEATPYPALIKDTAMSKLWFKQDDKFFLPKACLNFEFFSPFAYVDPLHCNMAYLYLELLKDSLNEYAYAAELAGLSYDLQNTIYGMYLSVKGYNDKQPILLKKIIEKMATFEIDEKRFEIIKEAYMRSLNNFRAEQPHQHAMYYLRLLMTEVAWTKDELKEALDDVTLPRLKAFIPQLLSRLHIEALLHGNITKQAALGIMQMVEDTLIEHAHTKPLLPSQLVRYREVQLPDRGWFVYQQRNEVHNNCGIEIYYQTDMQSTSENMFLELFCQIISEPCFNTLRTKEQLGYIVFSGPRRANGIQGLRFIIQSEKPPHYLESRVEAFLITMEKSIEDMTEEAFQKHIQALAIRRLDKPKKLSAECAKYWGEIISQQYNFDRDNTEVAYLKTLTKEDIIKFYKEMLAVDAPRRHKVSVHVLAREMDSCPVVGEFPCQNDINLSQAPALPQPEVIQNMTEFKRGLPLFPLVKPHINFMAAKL
In words: Dose Response: Fluorescence polarization-based cell-based high throughput dose response assay for inhibitors of insulin-degrading enzyme (IDE). [Related pubchem assays: 434962 (Primary screen (IDE inhibitors in singlicate)), 449730 (Counterscreen (Cytotoxicity in triplicate)), 435028 (Confirmation (IDE inhibitors in triplicate)), 434984 (Summary …. Type of experiment: functional. Background: Fluorescence polarisation rises when a labelled molecule tumbles more slowly, as on binding a larger partner.

A further experiment deals with T2, Caspase-3 (Homo sapiens, UniProt P42574).
T2 sequence (P42574 whole entry): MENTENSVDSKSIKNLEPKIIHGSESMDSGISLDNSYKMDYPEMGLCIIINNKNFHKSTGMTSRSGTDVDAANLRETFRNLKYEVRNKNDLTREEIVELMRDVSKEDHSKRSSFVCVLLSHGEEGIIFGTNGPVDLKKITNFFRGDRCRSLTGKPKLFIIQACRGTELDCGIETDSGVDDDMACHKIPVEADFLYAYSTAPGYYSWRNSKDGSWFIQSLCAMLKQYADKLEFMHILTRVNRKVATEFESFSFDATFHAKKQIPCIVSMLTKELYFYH
Nature of the experiment: procaspase-3 activation potency of dual hits, dose response, counter-screen for dual procaspase-3/7 activator project, biochemical, absorbance, PC-3 D3A mutant (AID 504328).

Another experiment deals with Caspase-7 (Homo sapiens, UniProt P55210). In words: procaspase-7 activators, dose response, dual procaspase-3/-7 activator project, biochemical, absorbance, human (AID 504330).
Experiment [2] concerns the target T3, Corticotropin-releasing factor receptor 2/Corticotropin-releasing factor-binding protein (Homo sapiens, UniProt P24387+Q13324).
T3 sequence (Q13324 whole entry): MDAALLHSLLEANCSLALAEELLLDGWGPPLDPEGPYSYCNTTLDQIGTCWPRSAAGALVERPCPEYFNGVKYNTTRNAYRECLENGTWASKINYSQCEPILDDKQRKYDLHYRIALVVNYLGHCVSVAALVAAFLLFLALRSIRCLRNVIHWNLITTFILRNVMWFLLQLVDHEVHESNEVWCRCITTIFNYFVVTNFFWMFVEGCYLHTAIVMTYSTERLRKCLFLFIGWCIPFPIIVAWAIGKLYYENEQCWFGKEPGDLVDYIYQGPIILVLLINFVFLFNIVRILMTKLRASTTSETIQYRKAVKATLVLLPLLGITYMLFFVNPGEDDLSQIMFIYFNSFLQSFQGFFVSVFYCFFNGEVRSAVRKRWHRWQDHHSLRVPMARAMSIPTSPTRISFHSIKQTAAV
T3 sequence (P24387 whole entry): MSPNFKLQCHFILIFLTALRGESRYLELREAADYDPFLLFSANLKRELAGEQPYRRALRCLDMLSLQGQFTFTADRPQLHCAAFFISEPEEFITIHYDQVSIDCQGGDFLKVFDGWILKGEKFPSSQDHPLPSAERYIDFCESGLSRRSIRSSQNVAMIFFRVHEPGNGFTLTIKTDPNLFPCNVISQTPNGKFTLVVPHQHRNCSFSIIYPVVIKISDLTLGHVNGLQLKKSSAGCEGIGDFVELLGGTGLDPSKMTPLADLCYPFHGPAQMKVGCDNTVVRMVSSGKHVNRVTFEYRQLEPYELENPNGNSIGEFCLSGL
Nature of the experiment: activators of CRF receptor 2 with binding protein – uHTS hits, confirmation (AID 602473). In kind it is functional. Particulars: read-out: EC50_Mean.

For experiment [3], the target named is T4, Mannose-6-phosphate isomerase (Homo sapiens, UniProt P34949).
T4 sequence (P34949 whole entry): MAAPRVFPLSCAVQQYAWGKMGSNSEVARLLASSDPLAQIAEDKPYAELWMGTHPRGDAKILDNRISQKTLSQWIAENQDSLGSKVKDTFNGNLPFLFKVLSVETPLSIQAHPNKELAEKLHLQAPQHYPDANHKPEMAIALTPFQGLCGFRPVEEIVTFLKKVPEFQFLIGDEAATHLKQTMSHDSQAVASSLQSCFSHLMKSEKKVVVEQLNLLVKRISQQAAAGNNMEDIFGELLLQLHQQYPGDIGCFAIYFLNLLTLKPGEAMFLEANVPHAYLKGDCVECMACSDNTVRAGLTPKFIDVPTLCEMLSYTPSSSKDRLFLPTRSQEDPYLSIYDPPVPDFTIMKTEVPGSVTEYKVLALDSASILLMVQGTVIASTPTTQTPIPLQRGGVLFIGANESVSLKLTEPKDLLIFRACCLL
Nature of the experiment: PMI enzyme inhibitors, confirmation, biochemical, fluorescence intensity (AID 1535).

The target in the next experiment is Phosphomannomutase 2 (Homo sapiens, UniProt O15305). In words: Counter screen SAR assay for PMM2 inhibitors via a fluorescence intensity assay. [Related pubchem assays (depositor defined):AID1545, AID1574].
Experiment [4] concerns the target Phosphoethanolamine/phosphocholine phosphatase (Homo sapiens, UniProt Q8TCT1). Nature of the experiment: SAR assay for compounds that inhibit PHOSPHO1. [Related pubchem assays (depositor defined):AID1545, AID1565, AID1574].

Molecules are shown by their SMILES. Calls of active or inactive are those of the source. A value given as a limit tells only on which side of the number the result lay.

Phosphoethanolamine/phosphocholine phosphatase, sequence (Q8TCT1 whole entry): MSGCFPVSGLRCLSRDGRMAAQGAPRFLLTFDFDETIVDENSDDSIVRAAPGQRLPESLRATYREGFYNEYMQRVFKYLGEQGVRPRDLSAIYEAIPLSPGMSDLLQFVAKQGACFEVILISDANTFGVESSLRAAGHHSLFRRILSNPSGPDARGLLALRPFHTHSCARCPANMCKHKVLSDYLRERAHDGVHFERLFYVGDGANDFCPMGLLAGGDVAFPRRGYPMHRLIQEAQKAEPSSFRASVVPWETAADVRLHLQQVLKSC
Phosphomannomutase 2, sequence (O15305 whole entry): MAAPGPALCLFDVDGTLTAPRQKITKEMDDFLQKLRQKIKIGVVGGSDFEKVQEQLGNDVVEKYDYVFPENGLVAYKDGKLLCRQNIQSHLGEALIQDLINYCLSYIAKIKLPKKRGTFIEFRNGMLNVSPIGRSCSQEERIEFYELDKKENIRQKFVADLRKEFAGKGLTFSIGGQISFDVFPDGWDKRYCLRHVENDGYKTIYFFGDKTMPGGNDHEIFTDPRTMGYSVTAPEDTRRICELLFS

The IC50 is the point on the concentration scale where inhibition reaches its midpoint. On to `O=C(C1=NN(c2ccccc2)C2C(=O)N(c3ccccc3)C(=O)C12)c1ccccc1` (stereo not drawn), for which the IC50 in experiment [1] is recorded as > 55.7 µM (not active); at Insulin-degrading enzyme, 25.5 µM (not active). The EC50 on Caspase-3 was > 85.3 µM (inactive); at Caspase-7, > 85.3 µM (inactive); in experiment [2] it was 14.6 µM (active).

On to `O=c1c2ccc(F)cc2sn1-c1cc(Cl)ccc1Cl`, for which the IC50 in experiment [3] is 44.9 µM (active); on Phosphomannomutase 2, 3.37 µM (active); in experiment [4] it was 0.384 µM (active).

The values above are taken from ChEMBL document CHEMBL1201862, “PubChem BioAssay data set” (2004).
